Reference: paper PMC12494546, “Structural basis of heme scavenging by the ChtA and HtaA hemophores in Corynebacterium diphtheriae” (The Journal of Biological Chemistry, 2025)
Several values for one entry are separate records, joined by “and”; a condition that tells them apart may be missing. Equal entries are not always repeated.

Columns and labels:
[1] = test system: HtaB^CR (donor) / HtaA^CR2 (acceptor); test: Native ESI-MS hemin partitioning HtaB^CR → HtaA^CR2; format: binding, Corynebacterium diphtheriae
Procedure: (§1) nESI-MS was used for ligand (heme)-competition experiments between CR domain pairs to determine their relative heme dissociation constant Krelative (Krel) ([37], [56]). In this approach, two different CR domains (e.g. a >90% heme-loaded “heme donor” and a <10% heme-loaded “heme acceptor” CR domain) are mixed and allowed to come to equilibrium (>6 h, 24 °C). The resulting mixture is then analyzed by nESI-MS, where the apo- and holo-abundance of each CR domain is determined from the sum peak intensity from each of their charge states as described previously ([37]). The relative affinity between the CR pair tested can be determined by their nESI-MS abundances according to Equation 1, which is derived from the ratio of each CR’s KD for heme. Importantly, this analysis is independent of [heme] and Krel should be consistent across different concentrations of [heme donor] and [heme acceptor]; thus, we used at least three different holo-donor and apo-acceptor stoichiometry ratios to determine each Krel reported in Table S4.(eq. 1) KRelative=[CR^hemeacceptor][CR^hemedonor·heme]/[CR^hemedonor][CR^hemeacceptor·heme]=Ab(CR^hemeacceptor)Ab(CR^hemedonor·heme)/Ab(CR^hemedonor)Ab(CR^hemeacceptor·heme)
(§2) For nESI-MS heme-competition experiments, CR domains were first buffer-exchanged into 50 mM ammonium acetate (pH 6.9) using dialysis or gel filtration and protein concentration was determined by bicinchoninic acid assay or UV-visible absorbance at 280 nm. Proteins were then mixed at donor:acceptor ratios ranging from 1:9 to 9:1 (but most often 1:3, 1:1, and 3:1), and incubated for at least 6 h at 24 °C. Equilibrated mixtures were then loaded into platinum-coated borosilicate emitter tips with an inner diameter of 200 to 500 nm pulled on a Sutter P-1000 Micropipette Puller and sprayed on a Q-Exactive UHMR Hybrid Quadrupole-Orbitrap Mass Spectrometer (Thermo Fisher Scientific).
(§3) Table of all CR pairs and stoichiometric ratios tested during the native ESI-MS heme equilibrium partitioning experiments. Apo or holo CR domains were mixed at various ratios (most commonly 1:3, 1:1, and 3:1, corresponding to 5:15 µM, 10:10 µM, or 15:5 µM, respectively).

[2] = test system: HtaA^CR1 (donor) / HtaB^CR (acceptor); test: Native ESI-MS hemin partitioning HtaA^CR1 → HtaB^CR; format: binding, Corynebacterium diphtheriae
Procedure: as §1, §2, §3

[3] = test system: ChtA^CR Y178A; test: ITC of hemin binding to ChtA^CR Y178A; design: species or system Corynebacterium diphtheriae
Source text: (§4) Protein samples were equilibrated in titration buffer supplemented with 5% (v/v) DMSO. […] Binding isotherms were fit to a one-site binding model using the program ORIGIN ([91]).

[4] = target: HtaB^CR (HtaB, residues of 30–273); test: Estimated hemin KD from native ESI-MS partitioning; format: binding, Corynebacterium diphtheriae; conditions: read-out: estimated KD for hemin, from nESI-MS Krel using ITC value of ChtA^CR as reference
Source text: (§5) The C. diphtheriae hemin-uptake system contains six CR domains that are located at distinct sites outside the cell (Fig. 1). […] Together, they represent nearly the full complement of C. diphtheriae’s CR domains (only the domains from ChtB and ChtC are missing, but they are expected to have similar binding properties as their paralogs, HtaB and ChtA, respectively). […] Similar measurements were made for the following protein pairs: HtaA^CR2/HtaB^CR, HtaA^CR1/HtaB^CR, HtaA^CR2/HtaA^CR1, ChtA^CR/HtaA^CR2, and ChtA^CR/HtaB^CR (Table S4).
as §1
(§6) For nESI-MS heme-competition experiments, CR domains were first buffer-exchanged into 50 mM ammonium acetate (pH 6.9) using dialysis or gel filtration and protein concentration was determined by bicinchoninic acid assay or UV-visible absorbance at 280 nm. […]

[5] = target: HtaA^CR1 (residues S37-G214); test: Estimated hemin KD from native ESI-MS partitioning; format: binding, Corynebacterium diphtheriae; conditions: read-out: estimated KD for hemin, from nESI-MS Krel using ITC value of ChtA^CR as reference
Source text: as §5, §1, §6

[6] = target: HtaA^CR2 (residues G344-G506); test: Estimated hemin KD from native ESI-MS partitioning; format: binding, Corynebacterium diphtheriae; conditions: read-out: estimated KD for hemin, from nESI-MS Krel using ITC value of ChtA^CR as reference
Source text: as §5, §1, §6

[7] = target: IsdA NEAT domain; design: method as in PMID 23649633, PMID 24245481; conditions: ITC, ref [57], [58]; cited from earlier work
[8] = test system: ChtA^CR Y129A; test: ITC of hemin binding to ChtA^CR Y129A; design: species or system Corynebacterium diphtheriae
Source text: as §4

[9] = target: T1, metHb (Homo sapiens, UniProt P68871+P69905); test: Hemin release kinetics from metHb (A405 plate reader assay with apo-acceptor); format: binding; conditions: 5 µM metHb, brackets 95% confidence interval; for kfast / kslow: 25 °C
T1 construct: blood-purified HbA in the carbonmonoxy form; from tissue; host or cells: blood
T1 sequence (P69905 2-142 limits assumed): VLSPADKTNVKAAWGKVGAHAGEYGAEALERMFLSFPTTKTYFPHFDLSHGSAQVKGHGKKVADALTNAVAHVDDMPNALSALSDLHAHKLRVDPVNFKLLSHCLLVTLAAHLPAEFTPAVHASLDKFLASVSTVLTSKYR
T1 sequence (P68871 2-147 limits assumed): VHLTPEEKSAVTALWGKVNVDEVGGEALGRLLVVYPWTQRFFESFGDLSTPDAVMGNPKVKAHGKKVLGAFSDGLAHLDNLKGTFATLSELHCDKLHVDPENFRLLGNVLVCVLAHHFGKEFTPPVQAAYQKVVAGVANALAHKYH
Procedure: Holo-metHb was injected to a final concentration of 5 μM on the heme basis in triplicate with 50 μM of the respective apo protein in a 384-well plate. The absorbance at 405 nm was measured every 2.5 min for 20 h in a SpectraMax iD3 plate reader (Molecular Devices). Experiments were performed at 25 °C to avoid apo-globin aggregation. Resulting curves were fit to a two-phase exponential decay equation in GraphPad Prism version 9.5.0 (GraphPad Software).
Bracketed values represent the 95% confidence interval for the fitted parameter values.

[10] = target: ChtA^CR Y178H; test: ITC of hemin binding to ChtA^CR Y178H; design: species or system Corynebacterium diphtheriae; conditions: 25 °C, average of three replicates
Source text: as §4

[11] = test system: CR domains within C. diphtheriae’s hemin-uptake system; test: Hemin affinity across the cohort of CR domains (ITC and native MS partitioning); format: binding, Corynebacterium diphtheriae; conditions: across ChtA^CR, HtaB^CR, HtaA^CR1, HtaA^CR2
Source text: as §5
nESI-MS was used for ligand (heme)-competition experiments between CR domain pairs to determine their relative heme dissociation constant Krelative (Krel) ([37], [56]). […] The resulting mixture is then analyzed by nESI-MS, where the apo- and holo-abundance of each CR domain is determined from the sum peak intensity from each of their charge states as described previously ([37]). The relative affinity between the CR pair tested can be determined by their nESI-MS abundances according to Equation 1, which is derived from the ratio of each CR’s KD for heme. […]
as §6

[12] = target: IsdH NEAT domain; design: method as in PMID 23649633, PMID 24245481; conditions: ITC, ref [57], [58]; cited from earlier work
[13] = test system: HtaA^CR2 (donor) / HtaB^CR (acceptor); test: Native ESI-MS hemin partitioning HtaA^CR2 → HtaB^CR; format: binding, Corynebacterium diphtheriae
Procedure: as §1, §2, §3

[14] = target: ChtA^CR K177G; test: ITC of hemin binding to ChtA^CR K177G; design: species or system Corynebacterium diphtheriae; conditions: 25 °C, average of three replicates
Source text: as §4

[15] = test system: HtaA^CR1 / HtaA^CR2; test: Native ESI-MS hemin partitioning HtaA^CR1 → HtaA^CR2; format: binding, Corynebacterium diphtheriae; conditions: transfer HtaA^CR1 → HtaA^CR2 (donor HtaA^CR2, acceptor HtaA^CR1)
Procedure: as §1, §2, §3

[16] = test system: HtaA^CR2 (donor) / ChtA^CR (acceptor); test: Native ESI-MS hemin partitioning HtaA^CR2 → ChtA^CR; format: binding, Corynebacterium diphtheriae
Procedure: as §1, §2, §3

[17] = target: ChtA^CR K177G + Y178H; test: ITC of hemin binding to ChtA^CR K177G + Y178H; design: species or system Corynebacterium diphtheriae; conditions: 25 °C, average of three replicates
Source text: as §4

[18] = apo-acceptor Myoglobin^H64Y/V68F 50 µM

Substance: hemin
- Krel (donor/acceptor) ([1]; acceptor HtaA^CR2, AVERAGE): 0.18 ± 0.01
- Krel inverse ([1]; acceptor HtaA^CR2, AVERAGE): 5.66 ± 0.33
- Krel (donor/acceptor) ([1]; acceptor HtaA^CR2, ratio 1:1): 0.17
- Krel inverse ([1]; acceptor HtaA^CR2, ratio 1:1): 5.8
- Krel (donor/acceptor) ([1]; acceptor HtaA^CR2, ratio 1:3): 0.17
- Krel inverse ([1]; acceptor HtaA^CR2, ratio 1:3): 5.9
- Krel (donor/acceptor) ([1]; acceptor HtaA^CR2, ratio 3:1): 0.19
- Krel inverse ([1]; acceptor HtaA^CR2, ratio 3:1): 5.28
- Krel (donor/acceptor) ([2]; AVERAGE): 5.75 ± 1.4
- Krel inverse ([2]; AVERAGE): 0.18 ± 0.05
- Krel (donor/acceptor) ([2]; ratio 1:1): 7.51 and 4.09 and 6.88
- Krel inverse ([2]; ratio 1:1): 0.13 and 0.24 and 0.15
- Krel (donor/acceptor) ([2]; ratio 1:3): 4.46 and 4.42
- Krel inverse ([2]; ratio 1:3): 0.22 and 0.23
- Krel (donor/acceptor) ([2]; ratio 3:1): 6.16 and 6.76
- Krel inverse ([2]; ratio 3:1): 0.16 and 0.15
- reduction of affinity ([3]; ChtA^CR Y178A versus WT): ~2 fold
- Kd ([3]; ChtA^CR Y178A, 25 °C, average of three replicates): 0.0466 ± 0.0096 µM
- Kd [4]: 0.0054 ± 0.001 µM
- Kd [5]: 0.0011 ± 0.0003 µM
- Kd [6]: 0.00085 ± 0.00015 µM
- Kd [7]: 0.014 ± 0.004 µM
- decrease in binding affinity ([8]; ChtA^CR Y129A versus WT): > 25 fold
- Kd ([8]; ChtA^CR Y129A, 25 °C, average of three replicates): > 0.5 µM
- kfast ([9]; apo-acceptor ChtA^CR 50 µM): 1.78 [1.51 - 2.1] hr^-1
- kslow ([9]; apo-acceptor ChtA^CR 50 µM): 0.18 [0.17 - 0.19] hr^-1
- %kfast ([9]; apo-acceptor ChtA^CR 50 µM): 35.52% [33.1% - 37.9%]
- kfast ([9]; apo-acceptor HtaA^CR1 50 µM): 1.55 [1.13 - 2.15] hr^-1
- kslow ([9]; apo-acceptor HtaA^CR1 50 µM): 0.21 [0.18 - 0.23] hr^-1
- %kfast ([9]; apo-acceptor HtaA^CR1 50 µM): 33.11% [26.9% - 39%]
- kfast ([9]; apo-acceptor HtaA^CR2 50 µM): 2.46 [2.23 - 2.72] hr^-1
- kslow ([9]; apo-acceptor HtaA^CR2 50 µM): 0.21 [0.19 to 0.22] hr^-1
- %kfast ([9]; apo-acceptor HtaA^CR2 50 µM): 41.11% [39.3% - 42.9%]
- kslow [9, 18]: 0.13 [0.11 - 0.14] hr^-1
- %kfast [9, 18]: 34.6% [30.8% - 38.3%]
- Kd [10]: 0.0548 ± 0.0019 µM
- variation in binding strength [11]: ~25 fold
- Kd [12]: 0.034 ± 0.008 µM
- Krel (donor/acceptor) ([13]; AVERAGE): 4.93 ± 0.88
- Krel inverse ([13]; AVERAGE): 0.21 ± 0.04
- Krel (donor/acceptor) ([13]; ratio 1:1): 3.92
- Krel inverse ([13]; ratio 1:1): 0.26
- Krel (donor/acceptor) ([13]; ratio 1:3): 5.31
- Krel inverse ([13]; ratio 1:3): 0.19
- Krel (donor/acceptor) ([13]; ratio 3:1): 5.56
- Krel inverse ([13]; ratio 3:1): 0.18
- Kd [14]: 0.0236 ± 0.0008 µM
- Krel (donor/acceptor) ([15]; AVERAGE): 0.84 ± 0.12
- Krel inverse ([15]; AVERAGE): 1.2 ± 0.15
- Krel (donor/acceptor) ([15]; ratio 1:1): 0.78
- Krel inverse ([15]; ratio 1:1): 1.28
- Krel (donor/acceptor) ([15]; ratio 1:3): 0.98
- Krel inverse ([15]; ratio 1:3): 1.02
- Krel (donor/acceptor) ([15]; ratio 3:1): 0.77
- Krel inverse ([15]; ratio 3:1): 1.29
- Krel inverse ([16]; AVERAGE): 24.96 ± 8.87
- Krel (donor/acceptor) ([16]; ratio 1:1): 0.05
- Krel inverse ([16]; ratio 1:1): 18.29
- Krel (donor/acceptor) ([16]; ratio 1:3): 0.05
- Krel inverse ([16]; ratio 1:3): 19.27
- Krel (donor/acceptor) ([16]; ratio 2:1): 0.03 and 0.06
- Krel inverse ([16]; ratio 3:1): 32.96
- Krel (donor/acceptor) ([16]; ratio (donor:acceptor) 3:1): 0.03
- Kd [17]: 0.0271 ± 0.009 µM
